Test results reported in patent US20240122872A1, “COMPOSITIONS AND METHODS FOR TREATMENT OF MICROBIAL INFECTIONS” (EpiTop, Inc., priority 2022, published 2024).
Like-named read-outs stand apart in the source and are kept apart here.

Experiments:
[1] = system: coronavirus 229E (VR-740); assay: Coronavirus 229E-mediated destruction of human fibroblasts (microscopy); type: cell-based; conditions: 229E 0.05 pfu/cell, 3 days or 5 days
Experimental: Normal human lung fibroblst (ATCC.org, CCL-191) were seeded at 1×10^5 cells/well in 24 well plates (Becton Dickinson, Torreyana, CA) and allowed to grow to confluence overnight at 37° C., 5% CO2 in Earle's MEM with 10% fetal calf serum (FCS). To examine whether thujopsene prevents coronavirus (229E)-induced destruction of fibroblast, fibroblasts were incubated with thujopsene (0.00, 0.01 or 0.02%) and 229E (0.05 pfu/cell) for 3 days or 5 days at 37° C. and 5% CO2. Then cell images (x25 magnification) were taken with the microscopy (Leica, Wetzler, Germany).

coronavirus (229E-VR740) = assay: Relative gene expression of coronavirus 229E in human fibroblasts (real time RT-PCR); type: cell-based; conditions: 0.01% or 0.02% thujopsene, 24 hours
Experimental: Human fibroblasts (Atcc.org, CCL-191) were treated with coronavirus (229E) and 0.01% or 0.02% of thujopsene for 24 hours, and then RNAs were isolated and PCRs were performed. Total RNA was isolated according to manufacturer's guidelines. RNeasy Mini Kits (Qiagen, Germantown, MD) were used according to the manufacturer's protocol to isolate RNA. RNA was reverse transcribed into cDNA using SuperScript® VILO™ MasterMix according to manufacturer's protocol and DNA was isolated according to manufacturer's guidelines. cDNAs were analyzed by real time RT-PCR by using an ABI Prism 7300 sequence detector.

HSV-1 = HSV-1 plaque assay (virus incubated with thujopsene, BS-C-1 cells); type: cell-based
Experimental: BS-C-1 African green monkey kidney cells were seeded at 2×10^5 cells/well in 24 well plates (Becton Dickinson, Torreyana, CA) and allowed to grow to confluence overnight at 37° C., 5% CO2 in Earle's MEM with 10% fetal calf serum (FCS). To examine the effects of thujopsene, 0, 0.01, and 0.02% of thujopsene were incubated with […] HSV-1 for 2 or 4 hours, at 37° C. and 5% CO2. For the plaque assay, the medium was removed and wells were overlaid with 0.5 ml 4% buffered formalin, allowed to fix for 10 minutes at room temperature. The formalin was removed and 0.5 ml 0.1% crystal violet in PBS was added to the wells for 5 minutes at room temperature. Wells were then aspirated and the air-dried for visualization of plaques.

[2] = system: Streptococcus pyogenes (ATCC BAA-19615); assay: Bactericidal assay (colony count), S. pyogenes; conditions: 2 hours at 37° C.; concentration as low as 0.0001%; thujopsene (0.001%), totarol (0.0001%) or combination
Vaccinia virus (VV) = type: cell-based

| Structure (SMILES) | Cellular structure of fibroblasts after treatment with coronavirus 229E ([1]; 0.01% thujopsene) | Cellular structure of fibroblasts after treatment with coronavirus 229E ([1]; 0.02% thujopsene) | Relative gene expression of 229E (coronavirus VR740) (coronavirus (229E-VR740); 0.01 pfu/cell) | Relative gene expression of 229E (coronavirus VR740) (coronavirus (229E-VR740); 0.05 pfu/cell) | Decrease of titers of virus (HSV-1; 2-hour incubation with 0.01% thujopsene) | Decrease of titers of virus (HSV-1; 2-hour incubation with 0.01% thujopsene (first statement)) | Decrease of titers of virus (HSV-1; 4-hour incubation with 0.01% thujopsene) | Inhibition of S. Pyogenes [2] | Decrease of titers of virus (Vaccinia virus (VV); 2-hour incubation with 0.02% thujopsene) | Decrease of titers of virus (Vaccinia virus (VV); 4-hour incubation with 0.02% thujopsene) |
| --- | --- | --- | --- | --- | --- | --- | --- | --- | --- | --- |
| CC1=CC[C@]2(C)CCCC(C)(C)[C@@]23C[C@@H]13 [thujopsene] | the cellular structures were maintained | the cellular structures were maintained | decreased in a dose-dependent manner | decreased in a dose-dependent manner | at least 90% | at least 50% | at least 90% | significantly inhibited | at least 25% | at least 25% |
| CC(C)c1c(O)ccc2c1CC[C@H]1C(C)(C)CCC[C@]21C [totarol] |  |  |  |  |  |  |  | significantly inhibited |  |  |
